# Where two headings read alike, the source gives them in different places.
# How the values were obtained:
# N6/ADR cells = experiment: Vincristine cytotoxicity assay; type: cell-based; details: Homo sapiens; Table 5; vincristine titrated with antibody at 100 μg/mL (2× final concentration); 72 hr
# Experimental: Cytotoxicity Assays. The effect of antibodies on vincristine cytotoxicity was evaluated on N6/ADR, a doxorubicin-selected, B1-positive variant of the human acute lymphoblastic leukemia (ALL) cell line, NALM6. Cells were plated in 0.05 mL of Assay Media (RPMI-1640+10% FBS) at 5000 cells/well in white flat bottom 96-well tissue culture plates. Vincristine was prepared at 2× final assay concentration by serial dilution from 200 uM in assay media containing test antibodies or control antibodies at 100 μg/mL (2× final concentration), or valspodar, a small molecule B1 inhibitor at 7 uM (2× final concentration). An equivalent volume (0.05 mL) of the vincristine/antibody mixture was added to the N6/ADR cells in 96-well plates. The plates were then incubated at 37° C., in 5% CO2. After 72 hr plates were equilibrated to room temperature and cell viability assessed using Promega® CellTiter-Glo® Luminescent Cell Viability Assay according to the manufacturer's recommended protocol. Luminescence was measured on a Molecular Devices® FlexStation® 3 Multi-Mode Microplate Reader and data analyzed using GraphPad Prism 8.0 software.
# [1] = molecular target: T1, PDL1 (293T cells overexpressing PDL1) (Homo sapiens, UniProt Q9NZQ7); experiment: PDL1 binding using 293T cells overexpressing PDL1
# T1 construct: expressed in transfected cells; host or cells: 293T
# T1 sequence (Q9NZQ7 19-290): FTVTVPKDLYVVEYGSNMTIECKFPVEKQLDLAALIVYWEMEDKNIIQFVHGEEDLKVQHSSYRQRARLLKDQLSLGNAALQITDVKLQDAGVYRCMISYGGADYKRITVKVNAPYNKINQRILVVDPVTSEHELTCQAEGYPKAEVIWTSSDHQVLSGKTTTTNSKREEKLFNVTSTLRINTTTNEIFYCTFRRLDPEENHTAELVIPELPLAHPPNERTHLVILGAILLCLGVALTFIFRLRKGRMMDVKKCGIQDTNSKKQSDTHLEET
# [2] = molecular target: MDR1 (293T cells overexpressing MDR1) (Homo sapiens, UniProt P08183)
# Experimental: Binding specificity of the mAbs, Fab and Bispecific IgG1 was tested by FACS using 293T cell lines naturally expressing CD47, 293T naïve cells overexpressing human ABCB1 target, 293T naïve cells having ABCB1 knocked down using Lentiviral RNA vectors, CD47 knock out 293T cells and CD47 knock out 293T cells overexpressing human ABCB1. […] The cells were washed three times with FACS buffer (PBS containing 0.5% BSA). Alexa647 labeled goat anti-human antibody was added as a secondary antibody, and the samples were incubated on ice for another 1 hour. Samples were washed and analyzed using a BD FACS Canto (BD Biosciences).
# FACS measurement for MDR1 binding was performed as described in Example 1.
# [3] = test system: human red blood cells (RBCs); experiment: Binding to human erythrocytes; details: FIG. 22A; in contrast to anti-CD47 5F9
# [4] = test system: multidrug resistant N6ADR cells; experiment: N6ADR tumor volume in mice (Example 2, FIG. 9); type: in vivo; details: for effect on tumor volume with paclitaxel (chemosensitization): antibody dosed about 1-4 hrs prior to paclitaxel; for effect on tumor volume without paclitaxel: antibody on day 0, 4, 7, 11, no chemotherapeutic agent
# Experimental: N6ADR cells were injected into a cohort of 6 mice per test group prior to administration of the indicated antibodies. The antibodies were administered once palpable tumors reached a size of about 100-150 mm^3 (about 7 days after injection of tumor cells). Antibodies were administered on day 0, day 4, day 7, and day 11. Tumor volumes were measured and are plotted. Panel A: 15D3/MRK16 monoclonal anti-MDR1 antibody. Panel B: KT14/MRK16 monoclonal anti-CD47 antibody. Panel C: Co-administration of 15D3/MRK16 monoclonal anti-MDR1 antibody and KT14/MRK16 monoclonal anti-CD47 antibody. Panel D: KbisP1.1 antibody.
# The indicated antibodies were administered with or without the chemotherapeutic agent paclitaxel. Antibody was dosed about 1-4 hrs prior to Paclitaxel.
# cynomolgus RBCs = experiment: Binding to cynomolgus erythrocytes; details: FIG. 22B; in contrast to anti-CD47 5F9
# NALM6 ADR cells = test system: NALM6 ADR cells
# Source text: Cells: NALM6 (ATCC) and NALM6 ADR (ATCC), B cell precursor lymphoblastic leukemia cell lines used in this study. NALM6 ADR is a multidrug resistant cell line derived from NALM6 cells.
# Mice: Sixty-five 5-6-weeks-old female SCID-Beige mice (Charles River) were used in this study.
# Inoculation-2×10^6 cells diluted in PBS:Matrigel (1:1) were subcutaneously injected using a 27G insulin syringe into fifty anesthetized 5-6-week-old female SCID-Beige mice under sterile conditions.
# NALM6 ADR subcutaneous tumors: Mice were randomized into nine groups of five mice each—(i) Control isotype IgG1 15 mg/kg, (ii) Control isotype IgG1 15 mg/kg and 5 mg/kg of paclitaxel, (iii) Control isotype IgG1 15 mg/kg and 20 mg/kg of paclitaxel, (iv) BisP1.1 15 mg/kg, (v) BisP1.1 15 mg/kg and 5 mg/kg of paclitaxel, (vi) BisP1.1 15 mg/kg and 20 mg/kg of paclitaxel (vii) Valspodar 20 mg/kg (viii) Valspodar 20 mg/kg and 5 mg/kg of paclitaxel and (ix) Valspodar 20 mg/kg and […]. Antibody, Valspodar and paclitaxel were dosed intraperitoneally twice a week for four consecutive weeks. Antibody/valspodar were injected at least 4 hours prior to paclitaxel injection. Paclitaxel preparation: Since paclitaxel is poorly soluble, a master stock of 50 mg/ml was prepared in absolute ethanol:Kolliphor (1:1). Prior to injection the stock was diluted to recommended doses of 5 mg/kg or 20 mg/kg with PBS maintaining a ratio of (1:16).
# Measurements: Tumor measurements were done thrice a week using a calibrated Vernier Caliper and tumor volume calculated as per the formula ½*L*S*S where L is the long axis and s is the short axis of the tumor. Body weights were recorded before treatment started and were continuously monitored throughout the study. Animal survival was evaluated from the first day of treatment until death. To avoid suffering, mice were euthanized when turning moribund according to the above-mentioned predefined criteria: rapid weight loss, loss of ability to ambulate, labored respiration, or inability to drink or feed.
# Statistics: Tumor volume and body weights were compared between different experimental groups using exact one-way analysis of variance (ANOVA). Kaplan-Meier survival curves were compared between different treatment groups using the log-rank (Mantel-Cox) test. Statistical analyses were performed using Graph Pad Prism (GraphPad, San Diego, CA, USA) software. The level of significance was set at p<0.05 for all analyses.
# [5] = Single dose cynomolgus monkey toxicity study; type: in vivo, cynomolgus monkeys (Macaca fascicularis); details: post infusion; paclitaxel 2 mg/kg
# Source text: Fifteen cynomolgus monkeys (Macaca fascicularis) were enrolled in a single dose study to evaluate KbisP1.1 toxicity.
# NALM6 cells = experiment: NALM6 subcutaneous tumors in SCID-Beige mice; type: in vivo; details: paclitaxel 5 mg/kg and 20 mg/kg
# Experimental: NALM6 subcutaneous tumors: Mice were randomized into three groups of five mice each—(i) Control vehicle, (ii) 5 mg/kg and (iii) 20 mg/kg of paclitaxel.
molecule,measurement,setting,value
"CC[C@]1(O)C[C@H]2CN(CCc3c([nH]c4ccccc34)[C@@](C(=O)OC)(c3cc4c(cc3OC)N(C=O)[C@H]3[C@@](O)(C(=O)OC)[C@H](OC(C)=O)[C@]5(CC)C=CCN6CC[C@]43[C@@H]65)C2)C1 [Vincristine alone, vincristine]",IC50,N6/ADR cells,543 nM
atezolizumab,EC50,[1],0.29 nM
necitumumab,binding to MDR1 by FACS,[2],did not show significant binding
5F9/MRK16: anti-CD47 antibody with two 5F9 heavy chains and two MRK16 light chains,binding to human erythrocytes,[3],does not significantly bind
same,effect on tumor volume with paclitaxel (chemosensitization),[4],not observed
same,effect on tumor volume without paclitaxel,[4],no significant effect on tumor volume
same,binding to cynomolgus erythrocytes,cynomolgus RBCs,does not significantly bind
"C/C=C/C[C@@H](C)C(=O)[C@H]1C(=O)N[C@@H](C(C)C)C(=O)N(C)CC(=O)N(C)[C@@H](CC(C)C)C(=O)N[C@@H](C(C)C)C(=O)N(C)[C@@H](CC(C)C)C(=O)N[C@@H](C)C(=O)N[C@H](C)C(=O)N(C)[C@@H](CC(C)C)C(=O)N(C)[C@@H](CC(C)C)C(=O)N(C)[C@@H](C(C)C)C(=O)N1C [valspodar, reference compound]",body weight,NALM6 ADR cells; valspodar result in combination with paclitaxel 20 mg/kg,significant reduction in body weight
15D3/MRK16: anti-MDR1 antibody with two 15D3 heavy chains and two MRK16 light chains,effect on tumor volume with paclitaxel (chemosensitization),[4],rendered the chemoresistant N6ADR cells sensitive to paclitaxel
same,effect on tumor volume without paclitaxel,[4],no significant effect on tumor volume
"CC(=O)O[C@H]1C(=O)[C@@]2(C)[C@H]([C@H](OC(=O)c3ccccc3)[C@]3(O)C[C@H](OC(=O)[C@H](O)[C@@H](NC(=O)c4ccccc4)c4ccccc4)C(C)=C1C3(C)C)[C@]1(OC(C)=O)CO[C@@H]1C[C@@H]2O [paclitaxel, reference compound]",erythema at the infusion site,[5],minimal erythema
same,tumor growth inhibition,NALM6 cells,significant (p<0.0001) tumor growth inhibition
same,tumor growth inhibition,NALM6 ADR cells; paclitaxel 5 mg/kg,significantly less tumor growth inhibition
same,tumor growth inhibition,NALM6 ADR cells; paclitaxel 20 mg/kg,modest inhibition

# — US12331121B2, “Efflux pump-cancer antigen multi-specific antibodies and compositions, reagents, kits and methods related thereto” (William Robert Arathoon Living Trust Dated August 29, 2016, priority 2019, dated 2025)
